# Columns and labels:
# Type in all cases: cell-based
# HL-60(TB) = experiment: NCI 60 cell line screen (SRB), Leukemia; conditions: HL-60(TB) (Leukemia)
# MOLT-4 = experiment: NCI 60 cell line screen (SRB), Leukemia; conditions: for Log10GI50 / Log10LC50 / Log10TGI: MOLT-4 (Leukemia)
# RPMI-8226 = experiment: NCI 60 cell line screen (SRB), Leukemia; conditions: RPMI-8226 (Leukemia)
# NCI-H226 = experiment: NCI 60 cell line screen (SRB), Non-Small Cell Lung Cancer
# NCI-H322M = experiment: as above
# NCI-H460 = experiment: as above
# COLO 205 = experiment: NCI 60 cell line screen (SRB), Colon Cancer; conditions: COLO 205 (Colon Cancer)
# HT29 = experiment: NCI 60 cell line screen (SRB), Colon Cancer
# SW-620 = experiment: NCI 60 cell line screen (SRB), Colon Cancer; conditions: SW-620 (Colon Cancer)
# SF-295 = experiment: NCI 60 cell line screen (SRB), CNS Cancer; conditions: SF-295 (CNS Cancer)
# SF-539 = experiment: NCI 60 cell line screen (SRB), CNS Cancer; conditions: SF-539 (CNS Cancer)
# SNB-19 = experiment: NCI 60 cell line screen (SRB), CNS Cancer; conditions: SNB-19 (CNS Cancer)
# SNB-75 = experiment: NCI 60 cell line screen (SRB), CNS Cancer; conditions: SNB-75 (CNS Cancer)
# U251 = experiment: NCI 60 cell line screen (SRB), CNS Cancer
# MALME-3M = experiment: NCI 60 cell line screen (SRB), Melanoma; conditions: MALME-3M (Melanoma)
# SK-MEL-2 = experiment: NCI 60 cell line screen (SRB), Melanoma; conditions: SK-MEL-2 (Melanoma)
# UACC-257 = experiment: NCI 60 cell line screen (SRB), Melanoma; conditions: UACC-257 (Melanoma)
# IGROVI = experiment: NCI 60 cell line screen (SRB), Ovarian Cancer
# OVCAR-5 = experiment: NCI 60 cell line screen (SRB), Ovarian Cancer; conditions: OVCAR-5 (Ovarian Cancer)
# OVCAR-8 = experiment: NCI 60 cell line screen (SRB), Ovarian Cancer; conditions: OVCAR-8 (Ovarian Cancer)
# SK-OV-3 = experiment: NCI 60 cell line screen (SRB), Ovarian Cancer; conditions: SK-OV-3 (Ovarian Cancer)
# ACHN = experiment: NCI 60 cell line screen (SRB), Renal Cancer
# SN12C = experiment: NCI 60 cell line screen (SRB), Renal Cancer
# HS 578T = experiment: NCI 60 cell line screen (SRB), Breast Cancer; conditions: HS 578T (Breast Cancer)
# BT-549 = experiment: NCI 60 cell line screen (SRB), Breast Cancer; conditions: BT-549 (Breast Cancer)
# 60 cell line panel = experiment: NCI 60 cell line screen, values over the whole panel; conditions: mean value over the cell line panel
# [1] = tested on: murine keratinocyte cell line PE; experiment: Growth inhibition of PE cells (MTT assay); conditions: murine keratinocytes, FIGS. 1-9
# Method: To determine the inhibitory effect of the trioxane dimers of the present invention on cell proliferation, screening assays were performed on a murine keratinocyte cell line PE. […] PE cell culture medium consisted of Eagle's minimal essential medium without calcium chloride (Whittaker Bioproducts, Walkersville, Ma.) supplemented with 8% chelexed fetal calf serum and 1% antibiotic-antimycotic (Gibco BRL) and the addition of CaCl2 to 0.05 mM Ca^++. […] (St. Louis, Mo.), and TPA was supplied by L. C. Services (Woburn, Ma.). L-[^14C]ornithine ([…]) was from Amersham/Searle Corp. (Arlington Heights, Ill.). Chemical solvents used in all assays of biological activity were of the highest grade commercially available. Growth Inhibition. […] A mitochondrial dehydrogenase reduces MTT to a blue formazan product with an absorbance maximum of 505 nm in DMSO; the number of viable cells can thus be determined spectrophotometrically. PE cells were seeded at a density of 5,000 cells/well in 50 μL of medium into 96-well microtiter plates. […] The plates were fed once at 48 h, with the readdition of the vitamin D3 analogs at this time. […] After 4 h, the MTT was removed and DMSO added to dissolve the blue formazan dye. Using a microtiter plate reader, the […] was then determined and cell number calculated from blank-subtracted absorbance values.
smiles,measurement,setting,value
"COC1OC2(C)CCC3CCCC(CCOC(=O)c4cccc(C(=O)OCCC5CCCC6CCC7(C)OOC56C(OC)O7)c4)C31OO2 (centres unmarked) [Compound 10, Trioxane Bis-ester Dimer]",Log10GI50,HL-60(TB),−7.21 M
same,Log10LC50,HL-60(TB),>−4.30 M
same,Log10TGI,HL-60(TB),−6.56 M
same,Log10GI50,MOLT-4,−7.68 M
same,Log10LC50,MOLT-4; listed as Metaphtalate Dimer,>−4.30 M
same,Log10TGI,MOLT-4; listed as Metaphtalate Dimer,−6.53 M
same,Log10LC50,MOLT-4; listed as metaphthalate dimer,−4.05 M
same,Log10TGI,MOLT-4; listed as metaphthalate dimer,−5.80 M
same,drug concentration necessary to achieve primary growth inhibition (percentage growth +50),"MOLT-4; MOLT-4, read from dose response curves FIGS. 10a-10e",less than 10^−7 molar
same,Log10GI50,RPMI-8226,−6.97 M
same,Log10LC50,RPMI-8226,>−4.30 M
same,Log10TGI,RPMI-8226,−5.73 M
same,Log10GI50,NCI-H226,−5.64 M
same,Log10LC50,NCI-H226,>−4.30 M
same,Log10TGI,NCI-H226,>−4.30 M
same,Log10GI50,NCI-H322M,>−4.30 M
same,Log10LC50,NCI-H322M,>−4.30 M
same,Log10TGI,NCI-H322M,>−4.0 M
same,Log10GI50,NCI-H460,−5.76 M
same,Log10LC50,NCI-H460,>−4.30 M
same,Log10TGI,NCI-H460,>−4.30 M
same,Log10GI50,COLO 205,−6.45 M
same,Log10LC50,COLO 205,−4.48 M
same,Log10TGI,COLO 205,−5.18 M
same,Log10GI50,HT29,−6.35 M
same,Log10LC50,HT29,>−4.30 M
same,Log10TGI,HT29,>−4.30 M
same,Log10GI50,SW-620,−6.47 M
same,Log10LC50,SW-620,>−4.30 M
same,Log10TGI,SW-620,>−4.30 M
same,Log10GI50,SF-295,−5.01 M
same,Log10LC50,SF-295,>−4.30 M
same,Log10TGI,SF-295,>−4.30 M
same,Log10GI50,SF-539,−6.11 M
same,Log10LC50,SF-539,>−4.30 M
same,Log10TGI,SF-539,>−4.30 M
same,Log10GI50,SNB-19,>−4.30 M
same,Log10LC50,SNB-19,>−4.30 M
same,Log10TGI,SNB-19,>−4.30 M
same,Log10GI50,SNB-75,−5.56 M
same,Log10LC50,SNB-75,>−4.30 M
same,Log10TGI,SNB-75,>−4.30 M
same,Log10GI50,U251,−6.09 M
same,Log10LC50,U251,>−4.30 M
same,Log10TGI,U251,>−4.30 M
same,Log10GI50,MALME-3M,−5.56 M
same,Log10LC50,MALME-3M,>−4.30 M
same,Log10TGI,MALME-3M,>−4.30 M
same,Log10GI50,SK-MEL-2,−5.47 M
same,Log10LC50,SK-MEL-2,>−4.30 M
same,Log10TGI,SK-MEL-2,>−4.30 M
same,Log10GI50,UACC-257,−5.03 M
same,Log10LC50,UACC-257,>−4.30 M
same,Log10TGI,UACC-257,>−4.30 M
same,Log10GI50,IGROVI,−5.34 M
same,Log10LC50,IGROVI,>−4.30 M
same,Log10TGI,IGROVI,−4.42 M
same,Log10GI50,OVCAR-5,−5.68 M
same,Log10LC50,OVCAR-5,>−4.30 M
same,Log10TGI,OVCAR-5,>−4.30 M
same,Log10GI50,OVCAR-8,−6.13 M
same,Log10LC50,OVCAR-8,>−4.30 M
same,Log10TGI,OVCAR-8,>−4.30 M
same,Log10LC50,SK-OV-3,>−4.30 M
same,Log10TGI,SK-OV-3,>−4.30 M
same,Log10GI50,ACHN,−5.85 M
same,Log10LC50,ACHN,>−4.30 M
same,Log10TGI,ACHN,>−4.30 M
same,Log10GI50,SN12C,−5.73 M
same,Log10LC50,SN12C,>−4.30 M
same,Log10TGI,SN12C,>−4.30 M
same,Log10GI50,HS 578T,−6.07 M
same,Log10LC50,HS 578T,>−4.30 M
same,Log10TGI,HS 578T,>−4.30 M
same,Log10GI50,BT-549,−5.47 M
same,Log10LC50,BT-549,>−4.30 M
same,Log10TGI,BT-549,>−4.30 M
same,Log10GI50 MG MID,60 cell line panel,−5.77 M
same,Log10LC50 MG MID,60 cell line panel,−4.30 M
same,Log10TGI MG MID,60 cell line panel,−4.52 M
same,antiproliferative activity,[1],high antiproliferative activity
"COC1OC2(C)CCC3CCCC(CCOC(=O)c4ccc(C(=O)OCCC5CCCC6CCC7(C)OOC56C(OC)O7)cc4)C31OO2 (centres unmarked) [Compound 11, Bis-ester Dimer]",Log10GI50,HL-60(TB),−7.42 M
same,Log10LC50,HL-60(TB),−5.26 M
same,Log10TGI,HL-60(TB),−6.58 M
same,Log10GI50,MOLT-4,−6.67 M
same,Log10LC50,MOLT-4,>−4.00 M
same,Log10TGI,MOLT-4; listed as Terephtalate Dimer,−4.70 M
same,Log10TGI,MOLT-4; listed as terephthalate dimer,6.20 M
same,Log10GI50,RPMI-8226,−6.33 M
same,Log10LC50,RPMI-8226,>−4.00 M
same,Log10TGI,RPMI-8226,−5.10 M
same,Log10GI50,NCI-H226,−5.26 M
same,Log10LC50,NCI-H226,>−4.00 M
same,Log10TGI,NCI-H226,>−4.00 M
same,Log10GI50,NCI-H322M,−4.69 M
same,Log10LC50,NCI-H322M,>−4.00 M
same,Log10TGI,NCI-H322M,>−4.00 M
same,Log10GI50,NCI-H460,−6.02 M
same,Log10LC50,NCI-H460,>−4.00 M
same,Log10TGI,NCI-H460,>−4.00 M
same,Log10GI50,COLO 205,−6.31 M
same,Log10LC50,COLO 205,−5.17 M
same,Log10TGI,COLO 205,−5.71 M
same,Log10GI50,HT29,−5.90 M
same,Log10LC50,HT29,>−4.00 M
same,Log10TGI,HT29,>−4.00 M
same,Log10GI50,SW-620,−6.12 M
same,Log10LC50,SW-620,>−4.00 M
same,Log10TGI,SW-620,>−4.00 M
same,Log10GI50,SF-295,−5.49 M
same,Log10LC50,SF-295,>−4.00 M
same,Log10TGI,SF-295,>−4.00 M
same,Log10LC50,SF-539,>−4.00 M
same,Log10GI50,SNB-19,−5.31 M
same,Log10LC50,SNB-19,>−4.00 M
same,Log10TGI,SNB-19,>−4.00 M
same,Log10GI50,SNB-75,−5.66 M
same,Log10LC50,SNB-75,>−4.00 M
same,Log10GI50,U251,−6.02 M
same,Log10LC50,U251,>−4.00 M
same,Log10TGI,U251,>−4.00 M
same,Log10GI50,MALME-3M,−5.03 M
same,Log10LC50,MALME-3M,>−4.00 M
same,Log10TGI,MALME-3M,>−4.00 M
same,Log10GI50,SK-MEL-2,−5.47 M
same,Log10LC50,SK-MEL-2,>−4.00 M
same,Log10TGI,SK-MEL-2,−5.04 M
same,Log10GI50,UACC-257,−5.36 M
same,Log10LC50,UACC-257,>−4.00 M
same,Log10TGI,UACC-257,>−4.00 M
same,Log10GI50,IGROVI,−4.95 M
same,Log10LC50,IGROVI,>−4.00 M
same,Log10TGI,IGROVI,>−4.00 M
same,Log10GI50,OVCAR-5,−5.45 M
same,Log10LC50,OVCAR-5,>−4.00 M
same,Log10TGI,OVCAR-5,>−4.00 M
same,Log10GI50,OVCAR-8,−6.03 M
same,Log10LC50,OVCAR-8,>−4.00 M
same,Log10TGI,OVCAR-8,>−4.00 M
same,Log10GI50,SK-OV-3,−5.28 M
same,Log10LC50,SK-OV-3,>−4.00 M
same,Log10TGI,SK-OV-3,>−4.00 M
same,Log10GI50,ACHN,−5.42 M
same,Log10LC50,ACHN,>−4.00 M
same,Log10TGI,ACHN,>−4.00 M
same,Log10GI50,SN12C,−5.46 M
same,Log10LC50,SN12C,>−4.00 M
same,Log10TGI,SN12C,>−4.00 M
same,Log10GI50,HS 578T,−4.55 M
same,Log10LC50,HS 578T,>−4.00 M
same,Log10TGI,HS 578T,>−4.00 M
same,Log10GI50,BT-549,−5.44 M
same,Log10LC50,BT-549,>−4.00 M
same,Log10TGI,BT-549,>−4.00 M
same,Log10GI50 MG MID,60 cell line panel,−5.59 M
same,Log10LC50 MG MID,60 cell line panel,−4.04 M
same,Log10TGI MG MID,60 cell line panel,−4.19 M
same,antiproliferative activity,[1],high antiproliferative activity

# Reference: patent USRE38117E1, “Trioxane dimer compound having antiproliferative and antitumor activities” (Hauser, Inc., priority 1995, dated 2003)
